# Laboratory results published in patent US20220062299A1, “USE OF GLUCOCORTICOID STEROIDS IN PREVENTING AND TREATING CONDITIONS OF MUSCLE WASTING, AGING AND METABOLIC DISORDER” (NORTHWESTERN UNIVERSITY, priority 2018, published 2022).
# Test system: aging Wildtype (WT) mice
# Assay: Aging wildtype mice, 40 weeks weekly prednisone
# Type: in vivo, mouse
# Method: Dosing of metabolic and endocrine biomarkers. Glycogen was quantitated using the Glycogen Assay Kit (#ab65620; Abcam, Cambridge, Mass.) from approximately 25 mg frozen-pulverized whole tissue, following manufacturer's instructions and internal standards for calculating μg/mg values. For measurement of whole-tissue ATP/NAD^+ levels, approximately 25 mg frozen-pulverized tissue was extracted in 10% perchloric acid and neutralized in 0.75 M K2CO3, as previously described (Ramsey et al., 2009). NAD+ and ATP were measured by high-pressure liquid chromatography (HPLC) with Shimadzu LC-20A pump (Shimadzu Scientific Instr Inc, Addison, Ill.) and UV-VIS detector, using a Supelco LC-18-T column (15 cm×[…]; #58970-U; Millipore-Sigma, St Louis, Mo.). […] ATP and NAD^+ eluted as sharp peaks at 3 and 14 minutes, respectively, and were normalized to tissue weight of frozen liver tissue for calculating pmol/mg values. Corticosterone was measured in mouse serum and cortisol was measured in human serum using dedicated ELISA kits (#ADI-900-097, Enzo Life Science, Farmingdale, N.Y.; #K7430-100, BioVision, Milpitas, Calif.) according to manufacturer's instructions and internal standards to calculate ng/ml values. Insulin levels were quantitated in mouse and human serum with species-specific ELISA kits (#10-1247-01 (mouse-specific); #10-1113-01 (human-specific); Mercodia, Uppsala, Sweden), following manufacturer's instructions and internal standards to calculate ng/ml values. Free fatty acids were quantitated using Enzychrom Free Fatty Acid Assay kit (#EFFA-100; BioAssay Systems, Hayward, Calif.), following kit's instructions and standards to calculate μM (serum) and nmol/mg (tissue) values. For ketone body dosing, beta-hydroxybutyrate was quantitated using a dedicated colorimetric assay kit (#700190; Cayman Chemical, Ann Arbor, Mich.), following manufacturer's instructions and standards to calculate μM (serum) and nmol/mg (tissue) values. […] Colorimetric reactions were quantitated using a Synergy HTX multi-mode plate reader (BioTek®, Winooski, Vt.) and averaging four reads/sample at appropriate wavelengths. […]
# Histology. […] Myofiber/adipocyte CSA quantitation was conducted on 400 myofibers/adipocytes per tissue per mouse. […] Area quantitation was performed by means of ImageJ (Schneider et al., 2012). Sample processing, imaging and CSA quantitation were conducted blinded to treatment groups.
# Muscle function, whole-body plethysmography, echocardiography. Forelimb grip strength was monitored using a meter (Cat #1027SM; Columbus Instruments, Columbus, Ohio) blinded to treatment groups. […]
# [1] = aging WT mice, weekly prednisone, 40 weeks
smiles,measurement,setting,value
"C[C@]12C=CC(=O)C=C1CC[C@@H]1[C@@H]2C(=O)C[C@@]2(C)[C@H]1CC[C@]2(O)C(=O)CO [prednisone, Prednisone]","grip strength, tetanic and specific force, and muscle mass (myofiber CSA)","aged WT mice, weekly prednisone, 40 weeks",improved
same,"levels of ATP, NAD+ and glycogen in muscle and heart tissues","aging WT mice, weekly prednisone 1 mg/kg i.p., 40 weeks from the age of 6 weeks",increased
same,parameters of cardiac contractile function (echocardiography),[1],improved
same,parameters of respiratory function (whole-body plethysmography),[1],improved
